Measurements as given in US11045473B2, “Compositions and methods for therapy of prostate cancer using drug combinations to target polyamine biosynthesis and related pathways” (Health Research, Inc., priority 2015, dated 2021).
“Also recorded” adds a separate entry of the source.

Columns and labels:
Type in all cases: cell-based, human
AMD1 = experiment: Western blot of AMD1 in LNCaP cells treated with BENSpm; conditions: BENSpm for 96 hours
Protocol: (§1) FIG. 11 depicts a Western blot showing AMD1, ODC1, SAT1 and B-actin protein expression in wild type LNCaP cells pretreated with +/−DHT for 24 hours followed by BENSpm for 96 hours.
(§2) We next analyzed whether the metabolic stress in CaP cells caused by high biosynthetic flux to maintain polyamine pools can be enhanced by increasing the activity of SAT1. We tested whether this could cause increased secretion of acetylated polyamines, putting intracellular pools in deficit, which should necessitate more biosynthesis, and should therefore potentiate any benefit of inhibiting the MSP. To conduct this analysis we used LNCaP cells that stably overexpress SAT1 in a Tet-off system (LNG53 cells, described in Kee, K., et al. J Biol Chem 279, 27050-27058 (2004)).

DU145 = experiment: Proliferation of DU145, BENSpm 24 h pre-treatment then 96 hr MTDIA; conditions: AR negative DU145, 2.5 μM BENSpm
Protocol: (§3) Tet was removed 24 hours prior to 96 hr treatment with MTDIA. […] Cells were pre-treated with BENSpm for 24 hours followed by 96 hr treatment with MTDIA.
as §2

SAT1 [1] = experiment: SAT1 activity in response to BENSpm treatment
From the text: as §2

LNCaP = experiment: Proliferation of wild type LNCaP, BENSpm 24 h pre-treatment then 96 hr MTDIA
Protocol: as §3, §2

SAT1 [2] = experiment: SAT1 mRNA and protein expression in LNCaP cells treated with BENSpm; conditions: BENSpm 0.1 to 10 μM
Protocol: as §1, §2

ODC1 = experiment: Western blot of ODC1 in LNCaP cells treated with BENSpm; conditions: BENSpm for 96 hours
Protocol: as §1, §2

MTAP [3] = experiment: Western blot of MTAP protein expression in LNCaP; conditions: MTA treatment
Protocol: (§4) FIG. 9. (A) Proliferation curves for LNCaP, DU145 and PC3 treated with MTDIA in the absence or presence of 10 or 20 uM MTA, for 4 and (B) 8 days. […] (C) Western blot analysis of FaDu, LNCaP, and DU145 cells after indicated treatments of MTA (0, 10, or 20 uM) or the respective 4 day IC25 and IC50 dose of MTDIA for each cell line plus or minus MTA immunoblotted with antibodies against MTAP, SMS, and SRM, with B-actin as a loading control. Western blot images are representative of biological triplicates.
(§5) Western Blotting—Whole cell extracts were prepared in RIPA buffer (150 mM NaCl, 1.0% NP-40, 0.5% deoxycholate, 0.1% SDS, 50 mM Tris-HCl pH 8.0, 5 mM EDTA and 0.5 mM PMSF) supplemented with 1× proteinase inhibitor. Protein concentrations were determined by Bradford Assay (Thermo Scientific, Cat #1856209). […] MTAP for Westerns was purchased from Proteintech™ (Cat #11475-1-AP. SRM and SMS were purchased from Abcam® (Cat #ab111884 and ab156879). B-actin antibody for Westerns was purchased from Sigma-Aldrich (Cat #A5441) and GAPDH was from Santa Cruz Biotecnology Inc. (Cat #sc-25778). Films were scanned using the Biorad ChemiDoc XRS, and band intensities were calculated using Image Lab™. Intensity values were normalized to B-actin loading control band intensities and made relative to control treatment conditions.

MTAP [4] = experiment: Western blot of MTAP protein expression in DU145; conditions: DU145, 10 and 20 uM MTA for 4 days
Protocol: as §4, §5

MTAP [5] = experiment: Western blot of MTAP protein expression in FaDu; conditions: 10 and 20 uM MTA for 4 days
Protocol: as §4, §5

CCNCCCNCCCNCCCNCC [BENSpm, N(1),N(11)-bisethylnorspermine]
effect on AMD1 (AMD1): minimal effects
sensitivity to MTDIA (DU145): more sensitive to MTDIA; also recorded: strongly increased sensitivity to MTDIA
SAT1 activity, dose dependent increase (SAT1 [1]; (+) dihydrotestosterone (DHT) conditions): 17-40 fold
SAT1 activity, dose dependent increase (SAT1 [1]; (−) DHT conditions): 6-20 fold
sensitivity to MTDIA (LNCaP; 2.5 μM BENSpm): more sensitive to MTDIA; also recorded: greatly increased sensitivity to MTDIA
effect on proliferation (LNCaP; 2.5 μM BENSpm alone): no effect on proliferation
SAT1 mRNA (SAT1 [2]): increased
SAT1 protein (SAT1 [2]): increased
effect on ODC1 (ODC1): minimal effects

CSC[C@H]1O[C@@H](n2cnc3c(N)ncnc32)[C@H](O)[C@@H]1O [MTA]
MTAP levels (MTAP [3]): unchanged
MTAP protein expression (MTAP [4]): slightly increased
MTAP protein expression (MTAP [5]): slightly decreased
